Experimental data published in publication PMC4169440, “Sequence Analysis and Molecular Characterization of Clonorchis sinensis Hexokinase, an Unusual Trimeric 50-kDa Glucose-6-Phosphate-Sensitive Allosteric Enzyme” (PLoS ONE, 2014).

How the values were obtained:
[1] = target: T1, rCsHK (recombinant Clonorchis sinensis hexokinase, CsHK) (Clonorchis sinensis, UniProt G7YJ23); assay: G6PD-coupled NADPH assay at […] nm; assay type: biochemical; conditions: 3 mM glucose, with respect to ATP
T1 construct: gene CLF_109217; homotrimer about 164 kDa
T1 sequence (G7YJ23 1-449): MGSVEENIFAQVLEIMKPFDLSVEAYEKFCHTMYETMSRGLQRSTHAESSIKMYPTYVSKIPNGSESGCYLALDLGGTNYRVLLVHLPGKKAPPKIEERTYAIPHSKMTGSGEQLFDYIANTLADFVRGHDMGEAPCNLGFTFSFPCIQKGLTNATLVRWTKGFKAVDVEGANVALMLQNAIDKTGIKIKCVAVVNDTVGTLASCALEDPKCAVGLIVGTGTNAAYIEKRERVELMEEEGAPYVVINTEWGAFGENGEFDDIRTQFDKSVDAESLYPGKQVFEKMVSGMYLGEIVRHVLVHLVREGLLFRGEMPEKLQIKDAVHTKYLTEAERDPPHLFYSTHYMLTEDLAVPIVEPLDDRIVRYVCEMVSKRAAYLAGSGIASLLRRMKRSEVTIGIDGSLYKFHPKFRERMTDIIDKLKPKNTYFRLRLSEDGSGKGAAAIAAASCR

[2] = target: T1, rCsHK (recombinant Clonorchis sinensis hexokinase, CsHK); assay: coupled pyruvate kinase / lactate dehydrogenase ADP assay at […] nm; assay type: biochemical; conditions: 0-4 mM G6P; with respect to ATP or glucose; allosteric inhibitor, dose-independent; also product
[3] = target: T1, rCsHK (recombinant Clonorchis sinensis hexokinase, CsHK); assay: G6PD-coupled NADPH assay at […] nm; assay type: biochemical; conditions: read-out: relative enzymatic activity at 4 mM
purified protein = substrate: Nc1ncnc2c1ncn2[C@@H]1O[C@H](COP(=O)(O)OP(=O)(O)OP(=O)(O)O)[C@@H](O)[C@H]1O; assay: purified protein; assay type: biochemical, Clonorchis sinensis; conditions: 3 mM glucose, 15 mM MgCl2, 100 mM Tris-Cl pH 8.5, 37 °C, sigmoidal, Mg-ATP true substrate

Nc1ncnc2c1ncn2[C@@H]1O[C@H](COP(=O)(O)OP(=O)(O)O)[C@@H](O)[C@H]1O [ADP]
G6PD-coupled NADPH assay at 340 nm ([1]; 0-3 mM ADP, mixed allosteric effector, also product): ADP, which is a product of HK, exhibited an unusual mixed allosteric effect on CsHK

O=P(O)(O)OC[C@H]1OC(O)[C@H](O)[C@@H](O)[C@@H]1O (some centres unmarked) [glucose-6-phosphate]
coupled pyruvate kinase / lactate dehydrogenase ADP assay at 340 nm [2]: Different concentrations G6P displayed the net allosteric inhibition of rCsHK

O=P(O)(O)OP(=O)(O)O [inorganic pyrophosphate]
G6PD-coupled NADPH assay at 340 nm ([1]; 0-3 mM PPi, allosteric activator, not a substrate): Different concentrations of PPi displayed a net allosteric activation of rCsHK with respect to ATP

O=C(C1CCCCC1)N1CC(=O)N2CCc3ccccc3C2C1 (centres unmarked) [praziquantel]
activity at 4000 µM [3]: 45%

B1: rCsHK (recombinant Clonorchis sinensis hexokinase, CsHK) (Clonorchis sinensis) (protein)
chain: T1 sequence (G7YJ23 1-449)
notes: homotrimer about 164 kDa
K0.5 (purified protein): 0.459 ± 0.007 mM
